The test system of test [1] is Eschericia coli (E. coli) strain ATCC25922. The test can be described thus: Standard microdilution assay, MIC against E. coli ATCC25922. Type of test: cell-based. To be noted: Escherichia coli; E. coli strain ATCC25922, standard microdilution assay; cutoff 16 micrograms/mL; read-out: MIC E. Coli. In outline: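 MIC determined by broth microdilution following CLSI protocols, with reference strains run in parallel for quality control. Activity scored +/− at a cutoff of 16 micrograms/mL.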

Test [2] has as its system Staphylococcus aureus (S. aureus) 11540 strain. Briefly: Standard microdilution assay, MIC against S. aureus 11540. Type of test: cell-based. To be noted: S. aureus 11540 strain, standard microdilution assay, cutoff 16 micrograms/mL, read-out: MIC S. aureus. As for the experimental part:
The in vitro activity of the compounds of the present invention can be determined. Antimicrobial testing is typically performed to determine the minimum inhibitory concentration (MIC). Minimum inhibitory concentrations (MICs) are determined by the microdilution method in a final volume of 100 μl according to protocols outlined by The Clinical and Laboratory Standards Institute (CLSI). Performance standards for reference strains are assessed within the same experimental design to maintain quality control. See, for example, Clinical Laboratory Standards Institute: Methods for dilution antimicrobial susceptibility tests for bacteria that grow aerobically M7-A8. Approved Standard-Eighth Edition. Wayne, Pa.: CLSI; December 2008; and Clinical Laboratory Standards Institute: Performance Standards for Antimicrobial Susceptibility Testing M100-S20; Approved Standard-Twentieth Edition. Wayne, Pa.: CLSI; June 2010.
The compounds of the present invention were tested for antimicrobial activity. The Compounds 1-582 were run against Eschericia coli (E. coli) strain ATCC25922 and Compounds 320-582 were run against Staphylococcus aureus (S. aureus) 11540 strain using a standard microdilution assay to determine minimum inhibitory concentrations (MICs). […] It will be recognized by one skilled in the art that the compounds can be assessed against other bacterial organisms and that the presentation of data for activity against Eschericia coli and Staphylococcus aureus are illustrative and in no way is intended to limit the scope of the present invention. The compounds of the present invention can be assayed against a range of other microorganisms depending upon the performance activity desired to be gathered. Furthermore, the “+” and “−” representation and the selection of a cutoff value of 16 micrograms/mL is also illustrative and in no way is intended to limit the scope of the present invention.

`C[C@H](N)CCCc1cc(Cl)c(F)c(-c2cc3cn(-c4ccc(CN[C@H](CCN)Cn5ccnn5)cc4)c(=O)nc3[nH]2)c1` [Compound 500]: the MIC in test [1] and in test [2] was < 16 µg/mL throughout.
As for `C[C@H](N)CCCc1cc(Cl)c(F)c(-c2cc3cn(-c4ccc([C@@H]5CCC[C@@H](CCN)N5)cc4)c(=O)nc3[nH]2)c1` [Compound 421], the MIC in test [1] and in test [2] was < 16 µg/mL each time.
Turning to `C[C@H](N)CCCc1cc(Cl)c(F)c(-c2cc3cn(-c4ccc([C@@H]5CCC[C@@H](CCc6ncc[nH]6)N5)cc4)c(=O)nc3[nH]2)c1` [Compound 508], the MIC in test [1] and in test [2] was < 16 µg/mL each time.
Regarding `C[C@H](N)CCCc1cc(Cl)c(F)c(-c2cc3cn(-c4ccc(CN[C@H](C)C[C@@H](CN)NC(=N)N)cc4)c(=O)nc3[nH]2)c1` [Compound 401], the minimum inhibitory concentration (MIC) in test [1] and in test [2] was < 16 µg/mL throughout.
On to `C[C@H](N)CCCc1cc(Cl)c(F)c(-c2cc3cn(-c4ccc([C@@H]5CCC[C@@H](CNC(=N)N)N5)cc4)c(=O)nc3[nH]2)c1` [Compound 540], for which the MIC in test [1] and in test [2] was < 16 µg/mL in each case.
Regarding `C[C@H](N)CCCN1CC[C@@H](c2cc3cn(-c4ccc(CNCCCNC(=N)N)cc4)c(=O)nc3[nH]2)C1` [Compound 577], the MIC in test [1] and in test [2] was < 16 µg/mL each time.
Turning to `C[C@H](NCCCNC(=N)N)c1ccc(-n2cc3cc(-c4cc([C@@H]5CC[C@H](C)N5)cc(Cl)c4F)[nH]c3nc2=O)cc1` [Compound 343], the MIC in test [1] and in test [2] was < 16 µg/mL throughout.
On to `C[C@H](N)CCCc1cc(OC(F)(F)F)c(F)c(-c2cc3cn(-c4ccc([C@H](C)NCCC(CC5CNC5)NC(=N)N)cc4)c(=O)nc3[nH]2)c1` (stereo partly shown) [Compound 481], for which the MIC in test [1] and in test [2] was < 16 µg/mL in each case.
Consider `C[C@H](N)CCCc1cc(Cl)c(F)c(-c2cc3cn(-c4ccc(CN[C@H](CCNC(=N)N)CNc5nccs5)cc4)c(=O)nc3[nH]2)c1` [Compound 491], for which the MIC in test [1] and in test [2] was < 16 µg/mL throughout.
Take `C=C[C@H](C[C@@H](C)NCc1ccc(-n2cc3cc(-c4cc(CCC[C@H](C)N)cc(Cl)c4F)[nH]c3nc2=O)cc1)NC(=N)N` [Compound 371]: the MIC in test [1] and in test [2] was < 16 µg/mL in each case.
Consider `N=C(NC1CC1)c1ccc(-n2cc3cc(-c4ccc(S(=O)(=O)NC5CCNCC5)cc4)[nH]c3nc2=O)cc1` [Compound 502], for which the MIC in test [1] and in test [2] was < 16 µg/mL throughout.
`C[C@H](N)CCCc1cccc(-c2cc3cn(-c4ccc([C@H](C)NCCCNC(=N)N)cc4)c(=O)nc3[nH]2)c1` [Compound 521]: the minimum inhibitory concentration (MIC) in test [1] and in test [2] was < 16 µg/mL in each case.
As for `C[C@H](N)CCCc1cc(Cl)c(F)c(-c2cc3cn(-c4ccc([C@H](C)NCC[C@@H](Cn5cc(CN)nn5)NC(=N)N)cc4)c(=O)nc3[nH]2)c1` [Compound 323], the minimal inhibitory concentration (MIC) in test [1] and in test [2] was < 16 µg/mL in each case.
For the compound `C[C@H](N)CCCc1cc(OC(F)(F)F)c(F)c(-c2cc3cn(-c4ccc([C@@H]5CC(CCNC(=N)N)CN5)cc4)c(=O)nc3[nH]2)c1` (stereo partly shown) [Compound 408], the MIC in test [1] and in test [2] was < 16 µg/mL in each case.
With `C[C@H](N)CCCc1cc(OC(F)(F)F)c(F)c(-c2cc3cn(-c4ccc(C5=NCCCN5)cc4)c(=O)nc3[nH]2)c1` [Compound 565], the minimum inhibitory concentration (MIC) in test [1] and in test [2] was < 16 µg/mL each time.
On to `C[C@H](N)CCCc1cc(Cl)c(F)c(-c2cc3cn(-c4ccc(CNCC[C@@H](CN)NC(=N)N)cc4)c(=O)nc3[nH]2)c1` [Compound 375], for which the MIC in test [1] and in test [2] was < 16 µg/mL in each case.
On to `C[C@H](N)CCCc1cccc(-c2cc3cn(-c4ccc(CNCCCNC(=N)N)cc4)c(=O)nc3[nH]2)c1` [Compound 520], for which the minimum inhibitory concentration (MIC) in test [1] and in test [2] was < 16 µg/mL each time.
Take `C[C@H](N)CCCc1cc(Cl)c(F)c(-c2cc3cn(-c4ccc([C@H]5CCC[C@H](CCNC(=N)N)N5)cc4)c(=O)nc3[nH]2)c1` [Compound 433]: the MIC in test [1] and in test [2] was < 16 µg/mL each time.
As for `C[C@H](N)CCCc1cc(Cl)c(F)c(-c2cc3cn(-c4ccc([C@@H]5CCC[C@@H](CCn6ncoc6=O)N5)cc4)c(=O)nc3[nH]2)c1` [Compound 545], the minimal inhibitory concentration (MIC) in test [1] and in test [2] was > 16 µg/mL in each case.
On to `C[C@H](CN)COC(=O)N1CC[C@@H](c2cc3cn(-c4ccc(CNCCCNC(=N)N)cc4)c(=O)nc3[nH]2)C1` [Compound 571], for which the MIC in test [1] and in test [2] was < 16 µg/mL throughout.
On to `C[C@H](N)CCCc1cc(Cl)c(F)c(-c2cc3cn(-c4ccc([C@H](C)NCC[C@H](CC(N)=O)NC(=N)N)cc4)c(=O)nc3[nH]2)c1` [Compound 348], for which the MIC in test [1] and in test [2] was < 16 µg/mL in each case.
Regarding `C[C@H](N)CCCc1cc(Cl)c(F)c(-c2cc3cn(-c4ccc([C@@H]5CCC[C@@H](CCn6ccnc6)N5)cc4)c(=O)nc3[nH]2)c1` [Compound 533], the MIC in test [1] and in test [2] was < 16 µg/mL throughout.
`NCC[C@@H]1CCC[C@@H](c2ccc(-n3cc4cc(-c5ccc(S(=O)(=O)NC6CCNCC6)cc5)[nH]c4nc3=O)cc2)N1` [Compound 493]: the minimum inhibitory concentration (MIC) in test [1] and in test [2] was < 16 µg/mL in each case.
As for `N=C(N)NCC[C@H](CN)NCc1ccc(-n2cc3cc(-c4cc(CCC[C@@H](N)CO)cc(Cl)c4F)[nH]c3nc2=O)cc1` [Compound 394], the minimum inhibitory concentration (MIC) in test [1] and in test [2] was < 16 µg/mL each time.
As for `C[C@H](N)CCCc1cc(Cl)c(F)c(-c2cc3cn(-c4ccc(CN[C@@H](CN)CCNC(=N)N)cc4)c(=O)nc3[nH]2)c1` [Compound 379], the MIC in test [1] and in test [2] was < 16 µg/mL each time.
Regarding `C[C@H](N)CCCc1cc(OC(F)(F)F)c(F)c(-c2cc3cn(-c4ccc([C@H](N)CCCN)cc4)c(=O)nc3[nH]2)c1` [Compound 455], the MIC in test [1] and in test [2] was < 16 µg/mL each time.
As for `N=C(N)NCC[C@H]1CC[C@H](c2ccc(-n3cc4cc(-c5cc(CCC[C@@H](N)CO)cc(Cl)c5F)[nH]c4nc3=O)cc2)N1` [Compound 482], the MIC in test [1] and in test [2] was < 16 µg/mL each time.
Consider `C[C@H](N)CCCc1cc(Cl)c(F)c(-c2cc3cn(-c4ccc([C@@H]5CCC[C@@H](CC#N)N5)cc4)c(=O)nc3[nH]2)c1` [Compound 498], for which the minimum inhibitory concentration (MIC) in test [1] was > 16 µg/mL; in test [2] it was < 16 µg/mL.
For the compound `C[C@H](N)CCCc1cc(OC(F)(F)F)c(F)c(-c2cc3cn(-c4ccc([C@@H](N)CCN)cc4)c(=O)nc3[nH]2)c1` [Compound 426], the MIC in test [1] and in test [2] was < 16 µg/mL each time.
`C[C@H](N)CCCc1cc(Cl)c(F)c(-c2cc3cn(-c4ccc([C@@H]5COC[C@@H](CCN)N5)cc4)c(=O)nc3[nH]2)c1` [Compound 354]: the minimum inhibitory concentration (MIC) in test [1] and in test [2] was < 16 µg/mL in each case.
In the case of `C[C@H](N)CCCc1cc(OC(F)(F)F)c(F)c(-c2cc3cn(-c4ccc([C@H](C)NCC[C@H](CCN)NC(=N)N)cc4)c(=O)nc3[nH]2)c1` [Compound 325], the MIC in test [1] and in test [2] was < 16 µg/mL each time.
Regarding `C[C@H](N)CCCc1cc(Cl)c(F)c(-c2cc3cn(-c4ccc([C@@H]5CCO[C@@H](CCN)C5)cc4)c(=O)nc3[nH]2)c1` [Compound 525], the minimum inhibitory concentration (MIC) in test [1] and in test [2] was < 16 µg/mL in each case.
With `C[C@H](N)CCCc1cc(Cl)c(F)c(-c2cc3cn(-c4ccc([C@H](C)NCC[C@@H](CNC(=O)CN)NC(=N)N)cc4)c(=O)nc3[nH]2)c1` [Compound 422], the MIC in test [1] and in test [2] was < 16 µg/mL each time.
In the case of `C[C@H](N)CCCc1cc(OC(F)(F)F)c(F)c(-c2cc3cn(-c4ccc([C@H](C)N[C@@H](CCNC(=N)N)C(=O)O)cc4)c(=O)nc3[nH]2)c1` [Compound 364], the minimum inhibitory concentration (MIC) in test [1] and in test [2] was > 16 µg/mL throughout.
Consider `C[C@H](N)CCCc1cc(Cl)c(F)c(-c2cc3cn(-c4ccc([C@H](N)CCN)cc4)c(=O)nc3[nH]2)c1` [Compound 440], for which the minimum inhibitory concentration (MIC) in test [1] and in test [2] was < 16 µg/mL each time.
For the compound `CC[C@H](N)CCCc1cc(Cl)c(F)c(-c2cc3cn(-c4ccc([C@H](C)NCC[C@H](CN)NC(=N)N)cc4)c(=O)nc3[nH]2)c1` [Compound 414], the minimal inhibitory concentration (MIC) in test [1] and in test [2] was < 16 µg/mL each time.
On to `C[C@H](N)CCCc1cc(OC(F)(F)F)c(F)c(-c2cc3cn(-c4ccc(CN[C@H](C)C[C@H](CCO)NC(=N)N)cc4)c(=O)nc3[nH]2)c1` [Compound 396], for which the MIC in test [1] and in test [2] was < 16 µg/mL throughout.
With `C[C@H](N)CCCc1cc(Cl)c(F)c(-c2cc3cn(-c4ccc([C@@H](N)CCN)cc4)c(=O)nc3[nH]2)c1` [Compound 425], the MIC in test [1] and in test [2] was < 16 µg/mL throughout.

Values taken from patent US10815238B2, “Antimicrobial compounds and methods of making and using the same” (BIOVERSYS AG, priority 2013, dated 2020).
